How the values were obtained:
IL-4 = assay: In vitro cytokine release from human PBMCs: IL-4; format: cell-based; conditions: PBMC, ConA 20 μg/mL, 24 hours, read-out: inhibited the release of IL-4
Method: (§1) 3-methanesulfonylpropionitrile (MSPN, prepared according to Example 1 was tested for its effects on in vitro cytokine release from human peripheral blood mononuclear cells (PBMCs). Secretion of cytokines by PBMCs plays a significant role in the inflammatory response.
(§2) MSPN was added to cultures of fresh human PBMCs at 162 μM (22 μg/mL) in duplicate. One hour later, PBMCs were stimulated to secrete cytokines using the mitogens lipopolysaccharide and concanavalin A (ConA). Lipopolysaccharide at 50 pg/mL was used to stimulate the release of interleukin IL-1β, IL-6 and tumor necrosis factor TNFα. ConA at 20 μg/mL was used to stimulate the release of IL-4 and ConA at 5 μg/mL was used to stimulate interferon IFNγ. The corticosteroid dexamethasone (100 nM) was used as a positive control. After 24 hours of incubation, the supernatants were assayed for the cytokines using the Luminex Bead kit. MSPN at 22 μg/mL inhibited the release of IL-1β, IL-6, TNFα, IL-4 and IFNγ by 95%, 98%, 98%, 7% and 21%, respectively. Dexamethasone inhibited the release of IL-1β, IL-6, TNFα, IL-4 and IFNγ by 24%, 60%, 42%, 93% and 87%, respectively.

IL-6 = assay: In vitro cytokine release from human PBMCs: IL-6; format: cell-based; conditions: PBMC, lipopolysaccharide 50 pg/mL, 24 hours, read-out: inhibited the release of IL-6
Method: as §1, §2

TNFα = assay: In vitro cytokine release from human PBMCs: TNFα; format: cell-based; conditions: PBMC, lipopolysaccharide 50 pg/mL, 24 hours, read-out: inhibited the release of TNFα
Method: as §1, §2

IFNγ = assay: In vitro cytokine release from human PBMCs: IFNγ; format: cell-based; conditions: PBMC, ConA 5 μg/mL, 24 hours, read-out: inhibited the release of IFNγ
Method: as §1, §2

IL-1β = assay: In vitro cytokine release from human PBMCs: IL-1β; format: cell-based; conditions: PBMC, lipopolysaccharide 50 pg/mL, 24 hours, read-out: inhibited the release of IL-1β
Method: as §1, §2

[1] = Oral systemic toxicity administration in rats; format: in vivo
[2] = Systemic (plasma) exposure of MSPN after oral and subcutaneous administration to rats; format: in vivo; conditions: after both the oral and subcutaneous routes
Method: This study was done to determine the systemic (plasma) exposure of MSPN after administration by the oral and subcutaneous routes to rats.
MSPN substance was prepared in water for oral administration and in saline for subcutaneous administration. Rats weighed 282 to 295 g were used in the study. Male rats (n=2) were given a single dose at 50, 160 or 500 mg/kg by both oral and subcutaneous routes. Female rats (n=2) were dosed only at 500 mg/kg by both oral and subcutaneous routes. The blood was drawn from each rat at 0.25, 1, 2, 3, 4, 6, 12, 24, and 48 hours and measured for MSPN concentration by LC/MS/MS.

[3] = Oral systemic toxicity administration in dogs; format: in vivo
[4] = tested on: arachidonic acid induced ear swelling; assay: Topical arachidonic acid induced ear swelling model in mice; format: in vivo; conditions: 30 min before and 15 min after challenge, at 90 minutes
Method: Purified 3-methanesulfonylpropionitrile (MSPN, prepared according to Example 2) was dissolved in vehicle (ethanol/acetone 1:1) to 5% (w/v). The active compound, indomethacin (positive control in vehicle), and vehicle were evaluated for anti-inflammatory activity in the topical arachidonic acid induced ear swelling model in mice.
Male ICR derived mice weighing 22±2 g were used in this experiment. 5 mice were used for each group (active compound, positive control, and vehicle). All animals were maintained in a controlled temperature (22-24° C.) and humidity (60%-70%) environment with 12-hour light/dark cycles for at least one week prior to use.
Arachidonic acid (2 mg in 20 μL acetone) was applied topically onto the anterior and posterior surfaces of the right ear of test animals to induce inflammation. MSPN in vehicle (20 μL), indomethacin (0.3 mg) in vehicle, and vehicle (20 μL) was each applied 30 minutes before and 15 minutes after arachidonic acid challenge. At 90 minutes after arachidonic acid induction of ear edema, the thickness of the right ear and the left ear was measured and the difference calculated as an indication of the inflammation in the right ear. Significant activity is defined as a reduction (inhibition) in arachidonic acid induced ear swelling by ≥30% relative to the vehicle-treated group.

[5] = Storage stability of the isolated product at room temperature; format: physicochemical; conditions: oil or solid form, enclosed vessel, room temperature (22-28° C.)
Description: In a preferred embodiment, the water-immiscible organic solvent is ethyl acetate. After the aqueous phase is removed, the ethyl acetate solvent is removed from the product by any means known to a person skilled in the art. For example, the ethyl acetate solvent can be removed by evaporation such as rotary evaporation or drying under nitrogen gas. After the ethyl acetate solvent is removed, the product 3-methanesulfonylpropionitrile is obtained in an oil form or in a solid form, which is stored in an enclosed vessel (such as a capped vial or bottle) and is stable for at least 1-3 months at room temperature (22-28° C.).

SMILES: C[C@@H]1C[C@H]2[C@@H]3CCC4=CC(=O)C=C[C@]4(C)[C@@]3(F)[C@@H](O)C[C@]2(C)[C@@]1(O)C(=O)CO [Dexamethasone, dexamethasone, reference compound]
- inhibition at 0.1 µM (IL-4; dexamethasone 100 nM): 93%
- inhibition at 0.1 µM (IL-6; dexamethasone 100 nM): 60%
- inhibition at 0.1 µM (TNFα; dexamethasone 100 nM): 42%
- inhibition at 0.1 µM (IFNγ; dexamethasone 100 nM): 87%
- inhibition at 0.1 µM (IL-1β; dexamethasone 100 nM): 24%

SMILES: CS(=O)(=O)CCC#N [MSPN, 3-methanesulfonylpropionitrile]
- inhibition at 162 µM (IL-4; MSPN at 22 μg/mL (162 μM)): 7%
- inhibition at 162 µM (IL-6; MSPN at 22 μg/mL (162 μM)): 98%
- effects seen after oral, systemic toxicity administration ([1]; rat, in vivo, po): mild physiological effects including decreased body temperature, decreased respiratory rate, increased blood pressure and increased heart rate
- doses at which effects were seen, above expected human therapeutic doses ([1]; rats, oral): over 2000 fold
- inhibition at 162 µM (TNFα; MSPN at 22 μg/mL (162 μM)): 98%
- bioavailability [2]: significant bioavailability
- inhibition at 162 µM (IFNγ; MSPN at 22 μg/mL (162 μM)): 21%
- effects seen after oral, systemic toxicity administration ([3]; dog, in vivo, po): mild physiological effects including decreased body temperature, decreased respiratory rate, increased blood pressure and increased heart rate
- doses at which effects were seen, above expected human therapeutic doses ([3]; dogs, oral): over 2000 fold
- decrease in the ear swelling induced by arachidonic acid relative to vehicle-treated group ([4]; 5% (w/v) in ethanol/acetone 1:1, 20 μL topical): 31%
- inhibition at 162 µM (IL-1β; MSPN at 22 μg/mL (162 μM)): 95%
- stable on storage [5]: 1-3 months

SMILES: COc1ccc2c(c1)c(CC(=O)O)c(C)n2C(=O)c1ccc(Cl)cc1 [indomethacin, reference compound]
- decrease in the ear swelling induced by arachidonic acid relative to vehicle-treated group ([4]; 0.3 mg in vehicle topical): 60%

Reference: patent US11229620B2, “3-methanesulfonylpropionitrile for treating inflammation and/or pain” (OLATEC THERAPEUTICS LLC, priority 2010, dated 2022)
